According to US9957270B2, “Fused pyrimidine-based hydroxamate derivatives” (Agency for Science, Technology and Research, priority 2014, dated 2018):

Experiments:
[1] = Microsomal stability, human liver microsomes
Procedure: (§1) GIBIO pooled human liver microsomes (HLM) (Cat # HMMCPL), mouse liver microsomes (MLM) (Cat # BCMCPL), and rat liver microsomes (RLM) (Cat # RTMCPL) were purchased from Life Technologies. […] Samples are incubated for 30, 45, or 60 min. Reaction is terminated with ice-cold acetonitrile 0.3% formic acid. Samples are subsequently centrifuged at 4° C. for 15 min at 20,000×g. The supernatant is analysed by LC-MS.
(§2) Compound in vitro metabolic stability was assayed using liver microsomes (LM) at 0.5 mg/mL of proteins, incubated for 30 min (mouse, MLM), 45 min (rat, RLM), 30 or 45 min (human, HLM). % of remaining parent compound was measured using LC-MS.

[2] = Microsomal stability, mouse liver microsomes
Procedure: as §1, §2

[3] = Microsomal stability, rat liver microsomes
Procedure: as §1, §2

[4] = tested on: COLO 205; test: cells; conditions: Homo sapiens, COLO 205, 72 h, read-out: In Vitro Cellular IC50 COLO 205
[5] = tested on: MV-4-11; test: cells; conditions: Homo sapiens, MV4-11, 72 h, read-out: In Vitro Cellular IC50 MV-4-11
[6] = molecular target: HDAC1 (Homo sapiens, UniProt Q13547); test: HDAC enzyme assay, recombinant HDAC1
HDAC1, sequence (Q13547 whole entry): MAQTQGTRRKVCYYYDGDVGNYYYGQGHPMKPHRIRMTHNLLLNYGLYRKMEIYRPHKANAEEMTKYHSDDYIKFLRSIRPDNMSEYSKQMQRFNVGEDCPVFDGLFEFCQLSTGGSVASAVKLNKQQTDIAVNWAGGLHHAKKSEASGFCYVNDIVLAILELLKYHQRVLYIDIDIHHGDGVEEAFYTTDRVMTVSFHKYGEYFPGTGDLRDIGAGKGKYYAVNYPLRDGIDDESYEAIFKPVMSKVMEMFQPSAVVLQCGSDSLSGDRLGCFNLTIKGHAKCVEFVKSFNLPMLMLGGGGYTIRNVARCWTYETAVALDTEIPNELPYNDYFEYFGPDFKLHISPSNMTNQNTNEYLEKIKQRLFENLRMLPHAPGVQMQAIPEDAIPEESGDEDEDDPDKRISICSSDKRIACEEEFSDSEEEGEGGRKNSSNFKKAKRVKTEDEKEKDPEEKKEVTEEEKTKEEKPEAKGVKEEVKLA

[7] = molecular target: HDAC (HeLa nuclear extracts); test: HDAC enzyme assay, HeLa nuclear extracts; conditions: read-out: In Vitro Enzymatic IC50 HDAC (HeLa)
[8] = tested on: MCF7; test: Anti-proliferative assay (cellular IC50), MCF7; conditions: Homo sapiens, MCF7, 72 h, read-out: In Vitro Cellular IC50 MCF7
[9] = tested on: PC-3; test: Anti-proliferative assay (cellular IC50), PC-3; conditions: Homo sapiens, PC-3, 72 h, read-out: In Vitro Cellular IC50 PC-3
[10] = tested on: K-562; test: Anti-proliferative assay (cellular IC50), K-562; conditions: Homo sapiens, K562, 72 h, read-out: In Vitro Cellular IC50 K-562
[11] = tested on: MOLT-4; test: Anti-proliferative assay (cellular IC50), MOLT-4; conditions: Homo sapiens, MOLT-4, 72 h, read-out: In Vitro Cellular IC50 MOLT-4
[12] = molecular target: T1, PI3Kα (Homo sapiens, UniProt P42336); test: Kinase enzyme assay (ADP-Glo), PI3Kα; assay type: biochemical; conditions: read-out: In Vitro Enzymatic IC50 PI3Kα
T1 construct: purchased Invitrogen, or BPS Bioscience Inc., or SignalChem PV4788 / 40620 / P27-18H
T1 sequence (P42336 whole entry): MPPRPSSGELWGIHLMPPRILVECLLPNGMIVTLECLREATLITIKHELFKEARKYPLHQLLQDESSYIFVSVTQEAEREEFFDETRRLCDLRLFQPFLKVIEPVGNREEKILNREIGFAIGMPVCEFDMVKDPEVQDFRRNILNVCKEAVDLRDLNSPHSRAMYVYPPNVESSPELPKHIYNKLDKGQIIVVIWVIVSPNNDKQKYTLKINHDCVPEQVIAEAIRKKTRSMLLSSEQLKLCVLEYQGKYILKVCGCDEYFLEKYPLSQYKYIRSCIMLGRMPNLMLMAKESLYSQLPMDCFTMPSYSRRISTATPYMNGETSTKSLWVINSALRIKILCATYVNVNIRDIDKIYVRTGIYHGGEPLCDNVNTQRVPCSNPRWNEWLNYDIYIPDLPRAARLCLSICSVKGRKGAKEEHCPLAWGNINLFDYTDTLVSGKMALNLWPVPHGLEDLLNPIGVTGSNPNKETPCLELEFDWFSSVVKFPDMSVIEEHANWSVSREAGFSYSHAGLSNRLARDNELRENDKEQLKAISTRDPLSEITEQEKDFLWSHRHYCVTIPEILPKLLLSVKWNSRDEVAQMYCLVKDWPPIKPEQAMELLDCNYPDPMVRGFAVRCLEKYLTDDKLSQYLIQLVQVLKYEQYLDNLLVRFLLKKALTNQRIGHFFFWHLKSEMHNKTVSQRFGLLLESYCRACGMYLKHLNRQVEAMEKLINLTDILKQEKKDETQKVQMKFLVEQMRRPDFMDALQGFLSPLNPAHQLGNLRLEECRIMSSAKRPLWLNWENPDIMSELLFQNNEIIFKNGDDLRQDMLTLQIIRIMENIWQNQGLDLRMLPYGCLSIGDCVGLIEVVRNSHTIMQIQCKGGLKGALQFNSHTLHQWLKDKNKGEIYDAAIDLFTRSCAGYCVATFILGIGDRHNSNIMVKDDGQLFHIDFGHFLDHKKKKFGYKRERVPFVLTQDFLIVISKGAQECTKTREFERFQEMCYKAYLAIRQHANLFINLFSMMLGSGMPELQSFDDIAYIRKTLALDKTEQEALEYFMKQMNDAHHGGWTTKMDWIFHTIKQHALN
T1 sequence (P27986 whole entry partner): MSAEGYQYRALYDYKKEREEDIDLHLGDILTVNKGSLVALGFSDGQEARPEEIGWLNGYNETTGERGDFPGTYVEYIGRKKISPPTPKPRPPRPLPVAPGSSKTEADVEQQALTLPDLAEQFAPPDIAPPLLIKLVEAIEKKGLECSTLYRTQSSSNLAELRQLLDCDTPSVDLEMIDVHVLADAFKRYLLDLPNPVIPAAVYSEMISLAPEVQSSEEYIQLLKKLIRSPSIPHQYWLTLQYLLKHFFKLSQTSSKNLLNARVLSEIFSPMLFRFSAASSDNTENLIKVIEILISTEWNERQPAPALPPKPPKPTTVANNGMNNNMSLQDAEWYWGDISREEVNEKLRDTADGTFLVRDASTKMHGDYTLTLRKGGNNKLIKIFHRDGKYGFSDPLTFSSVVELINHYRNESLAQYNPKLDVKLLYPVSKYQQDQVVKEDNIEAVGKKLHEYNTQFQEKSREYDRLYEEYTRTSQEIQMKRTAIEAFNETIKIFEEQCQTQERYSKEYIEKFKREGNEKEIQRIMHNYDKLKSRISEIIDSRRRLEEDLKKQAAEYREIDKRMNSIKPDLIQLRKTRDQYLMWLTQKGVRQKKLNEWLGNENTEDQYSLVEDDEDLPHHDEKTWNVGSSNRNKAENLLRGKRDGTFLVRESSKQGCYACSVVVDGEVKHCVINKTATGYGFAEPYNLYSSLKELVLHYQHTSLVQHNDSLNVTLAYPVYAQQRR

[13] = tested on: HCT 116; test: cells; conditions: Homo sapiens, HCT-116, 72 h, read-out: In Vitro Cellular IC50 HCT 116
[14] = tested on: HepG2; test: Anti-proliferative assay (cellular IC50), HepG2; conditions: Homo sapiens, HepG2, 72 h, read-out: In Vitro Cellular IC50 HepG2
[15] = human, microsomes, 0.75 h, 5 μM, pH 7.4
[16] = rat, microsomes, 0.75 h, 5 μM, pH 7.4

CC(C)n1cnc2c(-c3cccc(OCCCC(=O)NO)c3)nc(N(C)C)nc21 [compound 31, 4-(3-(2-(dimethylamino)-9-isopropyl-9H-purin-6-yl)phenoxy)-N-hydroxybutanamide]
Microsomal Stability HLM, % of remaining parent compound [1, 15]: 90%
Microsomal Stability MLM, % of remaining parent compound ([2]; mouse, microsomes, 0.5 h, 5 μM, pH 7.4): 53%
Microsomal Stability RLM, % of remaining parent compound [3, 16]: 25%
IC50 [4]: 500 to 2000 nM
IC50 [5]: < 500 nM
IC50 [6]: 10 to 100 nM
IC50 [7]: 10 to 100 nM
IC50 [8]: 500 to 2000 nM
IC50 [9]: 2000 to 10000 nM
IC50 [10]: 500 to 2000 nM
IC50 [11]: 500 to 2000 nM

COc1ccc2c(c1)[C@]13CCCC[C@@H]1[C@H](C2)N(C)CC3 [Dextromethorphan, dextromethorphan, reference compound]
Microsomal Stability HLM, % of remaining parent compound ([1]; human liver microsomes 0.5 mg/mL, compound 5 μM, 30 or 45 min): 65%
Microsomal Stability MLM, % of remaining parent compound ([2]; mouse liver microsomes 0.5 mg/mL, compound 5 μM, 30 min): 19%
Microsomal Stability RLM, % of remaining parent compound ([3]; rat liver microsomes 0.5 mg/mL, compound 5 μM, 45 min): 5%

CC(C)n1cnc2c(-c3cccc(OCCCCC(=O)NO)c3)nc(N3CCOCC3)nc21 [compound 10, N-hydroxy-5-(3-(9-isopropyl-2-morpholino-9H-purin-6-yl)phenoxy)pentanamide]
IC50 [12]: 1000 to 10000 nM
Microsomal Stability HLM, % of remaining parent compound [1, 15]: 87%
Microsomal Stability RLM, % of remaining parent compound [3, 16]: 74%
IC50 [4]: 2000 to 10000 nM
IC50 [5]: < 500 nM
IC50 [6]: 100 to 1000 nM
IC50 [7]: 10 to 100 nM
IC50 [8]: 500 to 2000 nM
IC50 [9]: 2000 to 10000 nM
IC50 [10]: 500 to 2000 nM

CC(C)n1ccc2c(-c3cccc(OCCCC(=O)NO)c3)nc(N3CCOCC3)nc21 [compound 76, N-hydroxy-4-(3-(7-isopropyl-2-morpholino-7H-pyrrolo[2,3-d]pyrimidin-4-yl)phenoxy)butanamide]
IC50 [13]: < 500 nM
IC50 [5]: < 500 nM
IC50 [6]: 10 to 100 nM
IC50 [7]: 10 to 100 nM
IC50 [8]: 500 to 2000 nM
IC50 [9]: 500 to 2000 nM
IC50 [14]: 500 to 2000 nM
IC50 [10]: 500 to 2000 nM
IC50 [11]: < 500 nM

CCn1c(CN(C)Cc2ccc(C(=O)NO)cc2)nc2c(N3CCOCC3)nc(-c3ccc(OC)nc3)nc21 [compound 96, 4-((((9-ethyl-2-(6-methoxypyridin-3-yl)-6-morpholino-9H-purin-8-yl)methyl)(methyl)amino)methyl)-N-hydroxybenzamide]
IC50 [4]: 500 to 2000 nM
IC50 [13]: 500 to 2000 nM
IC50 [5]: 500 to 2000 nM
IC50 [7]: 100 to 1000 nM
IC50 [8]: 500 to 2000 nM
IC50 [9]: 2000 to 10000 nM
IC50 [14]: 500 to 2000 nM
IC50 [10]: 2000 to 10000 nM
IC50 [11]: 500 to 2000 nM

CC(C)n1cnc2c(-c3cccc(NC(=O)CCCCCCC(=O)NO)c3)nc(N3CCOCC3)nc21 [compound 4]
Microsomal Stability HLM, % of remaining parent compound [1, 15]: 36%
Microsomal Stability RLM, % of remaining parent compound [3, 16]: 42%
IC50 [6]: 10 to 100 nM
IC50 [8]: 500 to 2000 nM
IC50 [10]: 500 to 2000 nM
